Our source for the viability values is ChEMBL document CHEMBL1151675, “Novel marine di-Z-carotenoids: cucumariaxanthins A, B, and C from the sea cucumber Cucumaria japonica” (J Nat Prod, 1996).

Assay type in all cases: cell-based
What all share (details): read-out: Activity

Data set [1] can be described thus: Cytotoxicity against human Raji cells assessed as cell viability at 10 molar ratio.
The nature of data set [2]: Cytotoxicity against human Raji cells assessed as cell viability at 1000 molar ratio.
Data set [3] can be described thus: Cytotoxicity against human Raji cells assessed as cell viability at 100 molar ratio.
The nature of data set [4]: Cytotoxicity against human Raji cells assessed as cell viability at 500 molar ratio.

In the case of `CC(=C/C=C/C(C)=C/C=C/C=C(C)/C=C/C=C(C)\C=C\[C@H]1[C@H](C)C(=O)CCC1(C)C)/C=C/[C@H]1[C@H](C)[C@@H](O)CCC1(C)C`, the viability at 10 molar ratio in data set [1] was greater than 80%. In addition, in data set [2], the viability at 1000 molar ratio came out at 70%. The viability at 100 molar ratio in data set [3] is greater than 80%. Further, in data set [4], the viability at 500 molar ratio was greater than 80%.
As to `CC(=C/C=C/C(C)=C/C=C/C=C(C)/C=C/C=C(C)\C=C\[C@H]1[C@H](C)[C@@H](O)CCC1(C)C)/C=C/[C@H]1[C@H](C)[C@@H](O)CCC1(C)C`, in data set [1], the viability at 10 molar ratio is greater than 80%. Besides, in data set [2], the viability at 1000 molar ratio turned out to be 70%. In addition, the viability at 100 molar ratio in data set [3] was greater than 80%. For the same molecule, the viability at 500 molar ratio in data set [4] came to 70%.
`CC1=C(/C=C/C(C)=C/C=C/C(C)=C/C=C/C=C(C)/C=C/C=C(C)/C=C/C2=C(C)CCCC2(C)C)C(C)(C)CCC1` [BETA CAROTENE]: the viability at 10 molar ratio in data set [1] was greater than 80%. Besides, the viability at 1000 molar ratio in data set [2] was 70%. Moreover, the viability at 100 molar ratio in data set [3] is greater than 80%. Further, the viability at 500 molar ratio in data set [4] was greater than 80%.
As to `CC(=C/C=C/C(C)=C/C=C/C=C(C)/C=C/C=C(C)\C=C\[C@H]1[C@H](C)C(=O)CCC1(C)C)/C=C/[C@H]1[C@H](C)C(=O)CCC1(C)C` [CUCUMARIAXANTHIN A], the viability at 10 molar ratio in data set [1] was greater than 80%. Further, in data set [2], the viability at 1000 molar ratio came out at 70%. Moreover, the viability at 100 molar ratio in data set [3] is greater than 80%. For the same molecule, the viability at 500 molar ratio in data set [4] is greater than 80%.
